This note sets out measurements from ChEMBL document CHEMBL1153157, “Discovery of benzimidazole-diamide finger loop (Thumb Pocket I) allosteric inhibitors of HCV NS5B polymerase: Implementing parallel synthesis for rapid linker optimization” (Bioorg Med Chem Lett, 2010).

One may read the IC50 as the midpoint of a concentration-inhibition curve. A lower IC50 goes with inhibition by little substance. In general, EC50 refers to the concentration giving half of the maximal effect. Low readings indicate greater potency, high ones weaker potency. For orientation: solubility means the dissolved amount per volume that the medium holds. A lower solubility goes with little dissolved substance. The term logD denotes lipophilicity at a set pH, counting ionised and neutral species. Read a high logD as a more lipophilic compound. By half-life is commonly meant the time needed for the level to fall by half in the phase considered. A lower half-life goes with rapid decline.

Data set [1] relates to Hepatitis C virus. Description: Inhibition of N-terminal hexahistidine tagged HCV 1b NS5B polymerase expressed in baculovirus infected Sf21 cells after 90 mins by SPA. Further details: species or system Hepatitis C virus subtype 1b. To be noted: Sf21, 1.5 h.
Data set [2] has as its system Hepatitis C virus. The experiment in a line: Antiviral activity against Hepatitis C virus subtype 1b by cell-based replicon assay. The format is functional, organism-based, Hepacivirus hominis. The conditions noted are these: genotype 1b.
Another data set has as its target Cytochrome P450 3A4 (Homo sapiens, UniProt P08684). The experiment in a line: Inhibition of human liver CYP3A4. The format is ADME.
A further data set has as its target Cytochrome P450 2D6 (Homo sapiens, UniProt P10635). The experiment in a line: Inhibition of human liver CYP2D6. The format is ADME.
In a further data set the target is Cytochrome P450 2C19 (Homo sapiens, UniProt P33261). The experiment in a line: Inhibition of human liver CYP2C19. The format is ADME.
Sequence of Cytochrome P450 2C19 (P33261 whole entry): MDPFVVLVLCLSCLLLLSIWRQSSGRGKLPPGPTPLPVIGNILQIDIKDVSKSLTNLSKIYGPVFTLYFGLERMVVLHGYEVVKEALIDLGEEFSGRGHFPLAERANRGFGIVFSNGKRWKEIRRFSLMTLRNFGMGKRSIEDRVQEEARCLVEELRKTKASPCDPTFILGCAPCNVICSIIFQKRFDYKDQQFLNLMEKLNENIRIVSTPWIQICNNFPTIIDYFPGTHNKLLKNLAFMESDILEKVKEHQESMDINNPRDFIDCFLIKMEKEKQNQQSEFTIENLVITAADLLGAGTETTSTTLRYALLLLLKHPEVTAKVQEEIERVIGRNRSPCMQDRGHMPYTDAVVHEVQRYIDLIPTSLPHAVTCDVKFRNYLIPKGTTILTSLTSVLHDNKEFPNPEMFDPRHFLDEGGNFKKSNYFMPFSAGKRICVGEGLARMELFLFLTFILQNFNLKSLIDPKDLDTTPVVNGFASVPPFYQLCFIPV
Data set [3] in a line: Aqueous solubility at pH 7.2. The format is physicochemical. The conditions noted are these: buffer.
Data set [4] can be described thus: Lipophilicity, log D at pH 7.4. It is filed as physicochemical. To be noted: buffer.
In another data set the target is T1, Cytochrome P450 1A2 (Homo sapiens, UniProt P05177).
T1 sequence (P05177 whole entry): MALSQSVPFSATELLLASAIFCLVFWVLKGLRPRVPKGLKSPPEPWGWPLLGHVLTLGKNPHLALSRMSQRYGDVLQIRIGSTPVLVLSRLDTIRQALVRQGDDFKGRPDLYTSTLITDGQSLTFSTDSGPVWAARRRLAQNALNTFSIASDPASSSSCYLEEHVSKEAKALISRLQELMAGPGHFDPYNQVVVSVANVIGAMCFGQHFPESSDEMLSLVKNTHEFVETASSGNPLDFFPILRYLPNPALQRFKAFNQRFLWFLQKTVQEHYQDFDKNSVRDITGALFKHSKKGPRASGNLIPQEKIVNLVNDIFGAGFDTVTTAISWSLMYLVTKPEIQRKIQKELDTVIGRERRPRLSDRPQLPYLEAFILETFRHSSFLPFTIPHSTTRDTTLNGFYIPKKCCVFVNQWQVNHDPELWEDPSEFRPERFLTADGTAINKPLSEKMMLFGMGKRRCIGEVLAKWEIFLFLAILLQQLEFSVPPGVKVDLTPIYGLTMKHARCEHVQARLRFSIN
Description: Inhibition of human liver CYP1A2. It is filed as ADME.

A further data set deals with Cytochrome P450 2C9 (Homo sapiens, UniProt P11712). The experiment in a line: Inhibition of human liver CYP2C9. The format is ADME.
Sequence of Cytochrome P450 2C9 (P11712 whole entry): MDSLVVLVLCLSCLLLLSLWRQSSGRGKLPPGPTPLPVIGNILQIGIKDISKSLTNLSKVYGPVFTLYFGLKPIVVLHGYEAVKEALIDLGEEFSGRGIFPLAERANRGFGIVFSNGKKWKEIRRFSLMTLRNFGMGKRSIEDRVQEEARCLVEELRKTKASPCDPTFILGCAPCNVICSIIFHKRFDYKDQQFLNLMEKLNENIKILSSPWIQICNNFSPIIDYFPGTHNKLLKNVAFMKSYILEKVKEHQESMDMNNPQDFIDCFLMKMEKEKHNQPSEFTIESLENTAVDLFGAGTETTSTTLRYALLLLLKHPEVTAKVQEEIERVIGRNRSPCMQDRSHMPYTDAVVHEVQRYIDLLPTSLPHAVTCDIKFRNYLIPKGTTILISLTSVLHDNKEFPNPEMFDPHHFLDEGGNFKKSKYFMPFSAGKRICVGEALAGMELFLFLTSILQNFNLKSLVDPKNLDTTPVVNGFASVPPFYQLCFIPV
The subject of another data set is Liver microsomes. The experiment in a line: (§1) Half life in human liver microsomes at 10 uM. The format is ADME, Microsome. To be noted: microsomes, 10 µM. (Microsomes from liver hold many membrane-bound enzymes, among them those of drug oxidation.)
Another data set concerns Enterovirus C. The experiment in a line: Inhibition of Poliovirus RNA dependent RNA polymerase expressed in Escherichia coli BL21 (DE3) up to 200 uM after 90 mins by SPA.
The species entered for the next data set is Bos taurus. The experiment in a line: Inhibition of calf thymus DNA-dependent RNA polymerase up to 200 uM after 120 mins.
A short description of data set [5]: as §1. The format is ADME, Microsome. The conditions noted are these: liver microsomes.

≈ marks a conversion by molar mass, not a printed value. Calls of active or inactive are those of the source.

Sequence of Cytochrome P450 2D6 (P10635 whole entry): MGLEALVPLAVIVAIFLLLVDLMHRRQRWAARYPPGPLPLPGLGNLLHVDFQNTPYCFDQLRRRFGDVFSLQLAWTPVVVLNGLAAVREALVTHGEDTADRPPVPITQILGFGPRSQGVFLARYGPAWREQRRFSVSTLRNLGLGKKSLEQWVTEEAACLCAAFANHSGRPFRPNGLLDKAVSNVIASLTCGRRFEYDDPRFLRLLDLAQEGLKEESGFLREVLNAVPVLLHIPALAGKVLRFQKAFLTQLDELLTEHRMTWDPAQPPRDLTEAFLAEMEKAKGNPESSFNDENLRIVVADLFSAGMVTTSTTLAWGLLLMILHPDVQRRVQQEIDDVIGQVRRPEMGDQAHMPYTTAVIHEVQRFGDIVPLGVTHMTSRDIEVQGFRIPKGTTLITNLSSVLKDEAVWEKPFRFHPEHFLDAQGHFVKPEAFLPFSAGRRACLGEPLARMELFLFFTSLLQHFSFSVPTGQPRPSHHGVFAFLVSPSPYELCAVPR
Sequence of Cytochrome P450 3A4 (P08684 whole entry): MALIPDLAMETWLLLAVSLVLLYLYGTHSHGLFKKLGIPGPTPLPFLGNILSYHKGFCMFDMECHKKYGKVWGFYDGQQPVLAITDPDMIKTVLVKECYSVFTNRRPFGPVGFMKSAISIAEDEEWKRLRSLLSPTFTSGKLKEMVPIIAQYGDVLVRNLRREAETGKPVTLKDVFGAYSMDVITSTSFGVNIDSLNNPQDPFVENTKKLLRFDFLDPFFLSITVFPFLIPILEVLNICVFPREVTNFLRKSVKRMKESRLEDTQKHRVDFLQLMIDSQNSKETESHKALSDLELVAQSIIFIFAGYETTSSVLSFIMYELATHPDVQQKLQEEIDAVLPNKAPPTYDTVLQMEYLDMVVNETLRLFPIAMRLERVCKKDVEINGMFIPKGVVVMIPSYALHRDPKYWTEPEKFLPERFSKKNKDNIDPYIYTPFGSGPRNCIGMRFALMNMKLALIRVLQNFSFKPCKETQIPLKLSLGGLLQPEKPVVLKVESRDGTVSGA

Molecule `O=C(O)/C=C/c1ccc(NC(=O)CNC(=O)c2ccc3c(c2)nc(-c2ccoc2)n3C2CCCCC2)cc1` came in with an IC50 with Hepatitis C virus [1] of 280 nM. In the data set on Hepatitis C virus [2], the EC50 was 41000 nM.
`CC(NC(=O)c1ccc2c(c1)nc(-c1ccoc1)n2C1CCCCC1)C(=O)Nc1cccc(C(=O)O)c1` (racemic): in the data set on Hepatitis C virus [1], it took 1610 nM to reach half-maximal inhibition (IC50).
The same measure, in the same setting: with `CC(NC(=O)c1ccc2c(c1)nc(-c1ccoc1)n2C1CCCCC1)C(=O)Nc1cccc(/C=C/C(=O)O)c1` (racemic) the figure was 900 nM.
In the data set on Hepatitis C virus [1], `C[C@@H](NC(=O)c1ccc2c(c1)nc(-c1ccoc1)n2C1CCCCC1)C(=O)Nc1ccc2[nH]c(C(=O)O)cc2c1` gave an IC50 of 60 nM. Moreover, the EC50 with Hepatitis C virus [2] is more than 40000 nM.
For the molecule `C[C@H](NC(=O)c1ccc2c(c1)nc(-c1ccoc1)n2C1CCCCC1)C(=O)Nc1ccc(/C=C/C(=O)O)cc1`, in the data set on Hepatitis C virus [1], inhibition was half-maximal at 360 nM (IC50). The molecule further gave an EC50 with Hepatitis C virus [2] of 25000 nM.
For `CC(NC(=O)c1ccc2c(c1)nc(-c1ccoc1)n2C1CCCCC1)C(=O)Nc1ccc(-c2ccc(C(=O)O)o2)cc1` (racemic), in that order: 450 nM and 28000 nM.
The corresponding values for `C[C@@H](NC(=O)c1ccc2c(c1)nc(-c1ccoc1)n2C1CCCCC1)C(=O)Nc1ccc2oc(C(=O)O)cc2c1` are 90 nM and more than 42000 nM.
In the data set on Hepatitis C virus [1], `CC(NC(=O)c1ccc2c(c1)nc(-c1ccoc1)n2C1CCCCC1)C(=O)Nc1ccc(CC(=O)O)cc1` (racemic) came in with an IC50 of 1520 nM.
Molecule `CC(NC(=O)c1ccc2c(c1)nc(-c1ccoc1)n2C1CCCCC1)C(=O)Nc1ccc(/C=C/C(=O)O)cc1` (racemic) came in with an IC50 in the data set on Hepatitis C virus [1] of 340 nM. In the data set with Hepatitis C virus [2], this molecule displayed an EC50 of 13000 nM.
The corresponding values for `CC(NC(=O)c1ccc2c(c1)nc(-c1ccoc1)n2C1CCCCC1)C(=O)Nc1ccc(C(=O)O)cc1` (racemic) are 390 nM and 30000 nM.
Consider `CC(=O)COc1ccc(NC(=O)C(C)NC(=O)c2ccc3c(c2)nc(-c2ccoc2)n3C2CCCCC2)cc1` (racemic), for which 900 nM corresponded to half-maximal inhibition with Hepatitis C virus [1] (IC50).
Regarding `O=C(N[C@@H](Cc1c[nH]c2ccc(O)cc12)c1cscn1)c1ccc2c(c1)nc(-c1ccoc1)n2C1CCCCC1`, the IC50 with Hepatitis C virus [1] is 300 nM; against Cytochrome P450 3A4 it was 400 nM; against Cytochrome P450 2D6 it was 4000 nM; against Cytochrome P450 2C19, 2400 nM; on Cytochrome P450 1A2, more than 30000 nM; at Cytochrome P450 2C9, 2300 nM. In addition, the solubility in [3] is less than 0.07 µg/mL. This molecule also returned a logD in data set [4] of 3.8. In the data set with Hepatitis C virus [2], this molecule came in with an EC50 of 1700 nM. In the data set with Liver microsomes, this molecule gave a t1/2 of 26 min.
`Cn1c(-c2ccoc2)c(C2CCCCC2)c2ccc(C(=O)N[C@@H](Cc3c[nH]c4ccc(O)cc34)c3cscn3)cc21` gave an IC50 with Hepatitis C virus [1] of 100 nM. Moreover, a half-maximal effect with Hepatitis C virus [2] (EC50) was put at 50 nM.
Turning to `O=C(O)COc1ccc2[nH]cc(C[C@H](NC(=O)c3ccc4c(c3)nc(-c3ccoc3)n4C3CCCCC3)C(=O)O)c2c1`, half-maximal inhibition in the data set with Hepatitis C virus [1] (IC50) required 19 nM.
For the molecule `CC[C@@H](NC(=O)c1ccc2c(c1)nc(-c1ccoc1)n2C1CCCCC1)C(=O)Nc1ccc(/C=C/C(=O)O)cc1`, in the data set on Hepatitis C virus [1], the midpoint of inhibition, the IC50, lay at 400 nM. This molecule displayed a concentration for a half-maximal effect (EC50) in the data set with Hepatitis C virus [2] of 6500 nM.
Turning to `C[C@@H](NC(=O)c1ccc2c(c1)nc(-c1ccoc1)n2C1CCCCC1)C(=O)Nc1ccc(/C=C/C(=O)O)cc1`, the IC50 in the data set on Hepatitis C virus [1] is 130 nM; against Cytochrome P450 3A4, 12300 nM; on Cytochrome P450 2D6, more than 30000 nM; at Cytochrome P450 2C19 it was more than 30000 nM; on Cytochrome P450 1A2, more than 30000 nM; at Cytochrome P450 2C9, more than 30000 nM. The solubility in data set [3] amounted to 171 µg/mL (≈ 325 µM). The logD in [4] came out at 2.2. The outcome with Enterovirus C and in the data set listed under Bos taurus was inactive. The molecule also yielded an EC50 in the data set on Hepatitis C virus [2] of 6900 nM. The same molecule came in with a half-life at 10 µM in [5] of 44 min.
